According to patent publication US20070172957A1, “Methods of identifying anti-inflammatory macrolides” (TAISHO PHARMACEUTICAL CO., LTD., priority 2004, published 2007):

Test system: genes predictive for the anti-inflammatory macrolide effect
Test: Genes statistically predictive of Clari response: differentially expressed with Clari but not the inactive macrolides MAA or Josa (Appendix E)
Format: cell-based
Excerpt: In the case of the above-mentioned (i) related to arachidonic acid biosynthesis, specifically, methods of the embodiment involve assaying whether a test macrolide alters biosynthesis of arachidonic acid, alters the expression or activities of enzymes involved in the biosynthesis or activation of arachidonic acid (e.g., arachidonic acid CoA synthetase, delta-6 desaturase, fatty acid elongase, and delta-5 desaturase, AA-related genes in Tables 2 and 3), or alters the expression of genes identified as predictive for the anti-inflammatory macrolide effect (Appendix E). Assays in which arachidonic acid or gene expression or enzymatic activity is detected can be carried out after contacting a cell with a test macrolide. Any cell line that secretes prostaglandin or produces arachidonic acid can be used. Epithelial and macrophages lines (e.g., A549 or THP-1) are suitable for this purpose; other cell lines can be identified by carrying out assays such as those described in the specific Examples, below. Alternatively, screening assays can be carried out after adding a test macrolide to an in vitro cell system (e.g., a cellular extract or liver microsome preparation) or an in vitro enzyme assay system.

CC[C@H]1OC(=O)[C@H](C)[C@@H](O[C@H]2C[C@@](C)(OC)[C@@H](O)[C@H](C)O2)[C@H](C)[C@@H](O[C@@H]2O[C@H](C)C[C@H](N(C)C)[C@H]2O)[C@](C)(OC)C[C@@H](C)C(=O)[C@H](C)[C@@H](O)[C@]1(C)O [clarithromycin]
1.18: mean group, TM9SF2 (SpotID 49007, pooled group mean) | group mean, gene PPIB (SpotID 49142, MAA and Josa vs. Clari) | group mean, gene PPIB (SpotID 49314, MAA and Josa vs. Clari)
0.82: group mean, gene CCNE2 (SpotID 49967, MAA and Josa vs. Clari)
1.05: group mean, gene LOC55871 (SpotID 49481, MAA and Josa vs. Clari) | group mean, gene POU4F1 (SpotID 49608, MAA and Josa vs. Clari) | group mean, gene SCOP (SpotID 50079, MAA and Josa vs. Clari) | group mean, SpotID 50216 (gene symbol not given) (SpotID 50216, MAA and Josa vs. Clari)
0.76: group mean, gene FGF2 (SpotID 49649, MAA and Josa vs. Clari)
1.11: group mean, gene SLC35A2 (SpotID 49380, MAA and Josa vs. Clari) | group mean, gene UBC (SpotID 49514, MAA and Josa vs. Clari) | mean group, BTN3A2 (SpotID 49673, pooled group mean) | group mean, gene RRBP1 (SpotID 50135, MAA and Josa vs. Clari) | group mean, gene IKKE (SpotID 50342, MAA and Josa vs. Clari) | group mean, gene PROS1 (SpotID 50643, MAA and Josa vs. Clari)
1.24: group mean, gene PCYT2 (SpotID 49705, MAA and Josa vs. Clari)
1.00: group mean, SpotID 50085 (gene symbol not given) (SpotID 50085, MAA and Josa vs. Clari) | group mean, gene UQCR (SpotID 50284, MAA and Josa vs. Clari) | mean group, CFL1 (SpotID 50351, pooled group mean) | mean group, ARHC (SpotID 50513, pooled group mean)
1.19: group mean, gene GNB5 (SpotID 50689, MAA and Josa vs. Clari)
0.94: mean group, TEB4 (SpotID 49360, pooled group mean) | group mean, gene EIF3S9 (SpotID 49373, MAA and Josa vs. Clari) | mean group, VTN (SpotID 49490, pooled group mean) | mean group, CYC1 (SpotID 49787, pooled group mean) | group mean, gene PRKCBP1 (SpotID 50532, MAA and Josa vs. Clari)
0.81: group mean, gene ARTS-1 (SpotID 49155, MAA and Josa vs. Clari) | group mean, gene SRRM1 (SpotID 49183, MAA and Josa vs. Clari)
0.97: mean group, ITGAE (SpotID 48921, pooled group mean) | mean group, YWHAH (SpotID 49318, pooled group mean) | group mean, gene AP1G2 (SpotID 49524, MAA and Josa vs. Clari)
1.13: group mean, gene FUCA1 (SpotID 49197, MAA and Josa vs. Clari) | group mean, gene GSK3B (SpotID 49735, MAA and Josa vs. Clari) | mean group, SpotID 50591 (SpotID 50591 (gene symbol not given), pooled group mean)
0.88: mean group, SERPINB1 (SpotID 49117, pooled group mean) | group mean, gene RRS1 (SpotID 49169, MAA and Josa vs. Clari) | group mean, gene TEB4 (SpotID 49360, MAA and Josa vs. Clari) | group mean, gene HNRPD (SpotID 49715, MAA and Josa vs. Clari) | mean group, CHAF1B (SpotID 49737, pooled group mean)
0.89: group mean, gene TRRAP (SpotID 49435, MAA and Josa vs. Clari) | mean group, CKS2 (SpotID 50590, pooled group mean)
1.16: mean group, PPIB (SpotID 49314, pooled group mean) | group mean, gene GC20 (SpotID 49512, MAA and Josa vs. Clari) | group mean, gene GNPI (SpotID 49546, MAA and Josa vs. Clari) | group mean, gene MAP3K10 (SpotID 49650, MAA and Josa vs. Clari)
1.15: group mean, gene PIK3R3 (SpotID 49144, MAA and Josa vs. Clari) | group mean, gene CLN2 (SpotID 49618, MAA and Josa vs. Clari) | group mean, gene BMP6 (SpotID 50319, MAA and Josa vs. Clari)
1.23: group mean, gene GSK3B (SpotID 49032, MAA and Josa vs. Clari) | group mean, gene LGALS3 (SpotID 49163, MAA and Josa vs. Clari)
0.87: group mean, gene CHERP (SpotID 50405, MAA and Josa vs. Clari)
1.09: mean group, UBC (SpotID 49514, pooled group mean) | mean group, SERPINF1 (SpotID 49679, pooled group mean) | group mean, gene RPLP0 (SpotID 49747, MAA and Josa vs. Clari) | mean group, AD022 (SpotID 49800, pooled group mean)
1.06: group mean, gene NEDD8 (SpotID 49177, MAA and Josa vs. Clari) | mean group, ATP2B4 (SpotID 49915, pooled group mean) | group mean, gene FLJ13868 (SpotID 50222, MAA and Josa vs. Clari) | mean group, SRP19 (SpotID 50601, pooled group mean)
1.48: group mean, gene P4HA2 (SpotID 48971, MAA and Josa vs. Clari)
1.03: group mean, gene APOE (SpotID 49233, MAA and Josa vs. Clari) | group mean, gene NCBP2 (SpotID 49352, MAA and Josa vs. Clari) | mean group, SpotID 49374 (SpotID 49374 (gene symbol not given), pooled group mean) | group mean, gene ATP2B4 (SpotID 49915, MAA and Josa vs. Clari)
1.17: group mean, gene PRSS25 (SpotID 49006, MAA and Josa vs. Clari) | group mean, gene SRC (SpotID 49446, MAA and Josa vs. Clari) | group mean, gene MATN2 (SpotID 49511, MAA and Josa vs. Clari) | group mean, gene LAMP2 (SpotID 49882, MAA and Josa vs. Clari) | group mean, gene SRC (SpotID 49990, MAA and Josa vs. Clari) | group mean, gene DGCR6L (SpotID 50399, MAA and Josa vs. Clari) | group mean, SpotID 50591 (gene symbol not given) (SpotID 50591, MAA and Josa vs. Clari)
1.08: mean group, TNFRSF10B (SpotID 49272, pooled group mean) | group mean, gene CAT (SpotID 49698, MAA and Josa vs. Clari) | group mean, gene DDOST (SpotID 49757, MAA and Josa vs. Clari) | mean group, IL10RB (SpotID 50267, pooled group mean) | group mean, gene CDR2 (SpotID 50302, MAA and Josa vs. Clari) | group mean, gene FGFR2 (SpotID 50337, MAA and Josa vs. Clari) | mean group, IKKE (SpotID 50342, pooled group mean) | group mean, gene PTPRT (SpotID 50550, MAA and Josa vs. Clari)
1.26: group mean, gene GSK3B (SpotID 49688, MAA and Josa vs. Clari)
1.32: group mean, gene IDI1 (SpotID 50084, MAA and Josa vs. Clari)
0.84: group mean, gene SERPINB1 (SpotID 49117, MAA and Josa vs. Clari) | group mean, gene CHAF1B (SpotID 49737, MAA and Josa vs. Clari) | group mean, gene CNOT3 (SpotID 50099, MAA and Josa vs. Clari) | mean group, LOC51295 (SpotID 50349, pooled group mean)
0.99: group mean, gene ITGAE (SpotID 48921, MAA and Josa vs. Clari) | group mean, gene PSMC4 (SpotID 49580, MAA and Josa vs. Clari)
0.95: group mean, gene GLUD1 (SpotID 49047, MAA and Josa vs. Clari) | group mean, gene YWHAH (SpotID 49318, MAA and Josa vs. Clari) | group mean, gene KIAA0169 (SpotID 49930, MAA and Josa vs. Clari) | group mean, gene NFYC (SpotID 50011, MAA and Josa vs. Clari)
0.90: group mean, gene YAF2 (SpotID 49172, MAA and Josa vs. Clari) | group mean, gene CYC1 (SpotID 49787, MAA and Josa vs. Clari) | group mean, gene CDKN2C (SpotID 49815, MAA and Josa vs. Clari) | group mean, gene CYC1 (SpotID 49820, MAA and Josa vs. Clari) | group mean, gene VTN (SpotID 49989, MAA and Josa vs. Clari) | group mean, gene PRKDC (SpotID 50736, MAA and Josa vs. Clari)
0.92: group mean, gene ABCE1 (SpotID 49364, MAA and Josa vs. Clari) | group mean, gene PPP3CB (SpotID 49391, MAA and Josa vs. Clari) | mean group, TRRAP (SpotID 49435, pooled group mean) | mean group, AP1G2 (SpotID 49524, pooled group mean) | mean group, PRKDC (SpotID 50736, pooled group mean)
1.01: mean group, APOE (SpotID 49233, pooled group mean) | group mean, gene BCL2L2 (SpotID 49761, MAA and Josa vs. Clari) | group mean, gene BCL2L2 (SpotID 49794, MAA and Josa vs. Clari) | group mean, gene IRF5 (SpotID 50103, MAA and Josa vs. Clari) | mean group, BET1 (SpotID 50645, pooled group mean)
1.07: group mean, gene BBC3 (SpotID 49013, MAA and Josa vs. Clari) | mean group, CSTF3 (SpotID 49606, pooled group mean) | group mean, gene USF2 (SpotID 49744, MAA and Josa vs. Clari) | group mean, gene MBTPS1 (SpotID 50067, MAA and Josa vs. Clari) | mean group, BN51T (SpotID 50584, pooled group mean)
1.20: group mean, gene TM9SF2 (SpotID 49007, MAA and Josa vs. Clari) | mean group, BNIP3L (SpotID 49028, pooled group mean) | group mean, gene DAD1 (SpotID 50332, MAA and Josa vs. Clari)
1.14: mean group, PRSS25 (SpotID 49006, pooled group mean) | mean group, SRC (SpotID 49446, pooled group mean) | group mean, gene HK2 (SpotID 50224, MAA and Josa vs. Clari) | group mean, gene AD022 (SpotID 50738, MAA and Josa vs. Clari)
1.12: mean group, CLN2 (SpotID 49618, pooled group mean) | group mean, gene AD022 (SpotID 49767, MAA and Josa vs. Clari) | group mean, gene AGPAT1 (SpotID 50412, MAA and Josa vs. Clari) | group mean, gene COPB2 (SpotID 50654, MAA and Josa vs. Clari)
0.71: group mean, gene HNRPA3 (SpotID 49347, MAA and Josa vs. Clari)
1.25: group mean, gene BNIP3L (SpotID 49028, MAA and Josa vs. Clari)
0.78: group mean, gene LOC51295 (SpotID 50349, MAA and Josa vs. Clari)
1.29: group mean, gene TM7SF2 (SpotID 50294, MAA and Josa vs. Clari) | group mean, gene CEBPA (SpotID 50474, MAA and Josa vs. Clari)
0.91: group mean, gene UNG (SpotID 48807, MAA and Josa vs. Clari) | group mean, gene VTN (SpotID 49490, MAA and Josa vs. Clari) | group mean, gene TFAM (SpotID 50386, MAA and Josa vs. Clari)
0.93: mean group, RRS1 (SpotID 49169, pooled group mean) | mean group, RFC1 (SpotID 49947, pooled group mean) | mean group, HIF1A (SpotID 50022, pooled group mean)
0.86: mean group, ARTS-1 (SpotID 49155, pooled group mean) | mean group, CNOT3 (SpotID 50099, pooled group mean)
1.04: group mean, SpotID 49374 (gene symbol not given) (SpotID 49374, MAA and Josa vs. Clari) | mean group, SCOP (SpotID 50079, pooled group mean)
1.02: mean group, LOC54543 (SpotID 49577, pooled group mean) | mean group, NDUFA2 (SpotID 50050, pooled group mean) | group mean, gene ARHC (SpotID 50513, MAA and Josa vs. Clari)
0.83: group mean, gene TUBB (SpotID 48914, MAA and Josa vs. Clari)
1.44: group mean, gene FADS1 (SpotID 48998, MAA and Josa vs. Clari)
0.98: mean group, MGP (SpotID 50511, pooled group mean)
1.10: mean group, AD022 (SpotID 49767, pooled group mean) | group mean, gene P4HB (SpotID 49781, MAA and Josa vs. Clari) | group mean, gene BMP6 (SpotID 49981, MAA and Josa vs. Clari) | group mean, gene GNB2L1 (SpotID 50049, MAA and Josa vs. Clari) | group mean, gene MAX (SpotID 50307, MAA and Josa vs. Clari) | mean group, GOCAP1 (SpotID 50421, pooled group mean) | group mean, gene SIGIRR (SpotID 50452, MAA and Josa vs. Clari) | group mean, gene MMP15 (SpotID 50464, MAA and Josa vs. Clari) | group mean, gene PDIR (SpotID 50639, MAA and Josa vs. Clari) | group mean, gene MAX (SpotID 50659, MAA and Josa vs. Clari) | mean group, AD022 (SpotID 50738, pooled group mean)
1.27: group mean, gene DHCR24 (SpotID 49922, MAA and Josa vs. Clari)
